The values that follow come from patent publication US6121248A, “Anti-viral agent” (priority 1998, dated 2000).

One series relates to varicella-zoster virus. Description: Anti-viral activity against varicella-zoster virus, microplaque reduction method. Particulars: for EC50: Human alphaherpesvirus 3, MRC5, 72 h, varicella-zoster virus HOSEN strain, MRC-5 cells, 35° C., day 3, read-out: ED50 (50% effective density); for SI (selectivity index, CC50/ED50): varicella-zoster virus. The series is classed as cell-based, varicella-zoster virus (HOSEN strain). On the procedure:
Determination of Anti-viral Activity against Varicella-zoster Virus
(§1) The anti-viral activity against varicella-zoster virus was determined by the microplaque reduction method. That is, MRC-5 cells were cultured in a 96-well microtiter plate until the cells reached the confluent state. Each of the compounds being tested was added to the wells to which a preparation of varicella-zoster virus (HOSEN strain) was subsequently added. The plate was cultured at 35° C. in a CO2 incubator. On day 3 after the culture, physiological saline containing 10% formalin was added to the wells and the plate was allowed to stand overnight to fix the cells to the wells. After wasing the plate, the cells were stained with a crystal violet solution and then washed. The focus formation by varicella-zoster virus was observed microscopically and the number of the foci was counted.
(§2) The concentration of each compound that inhibits by 50% of the number of foci observed in a group containing no compound was determined as a 50% effective density (ED50).
(§3) The selectivity index (SI), which is the ratio of the cytotoxic concentration to the anti-virally effective density, was determined by the equation: […]

Series [1] is described as follows: Cytotoxicity in virus-free MRC-5 cells (Example 1). The class given is cell-based. Particulars: human. On the procedure:
as §1
The virus-free group in which, in place of the preparation of varicella-zoster virus, the culture medium was added to the MRC-5 cells was also cultured in the same manner.

In a further series the test system is cytomegalovirus. Description: Anti-viral activity against cytomegalovirus, microplaque reduction method. The settings on record: for EC50: Human betaherpesvirus 5, MRC5, 144 h, human cytomegalovirus AD 169 strain, MRC-5 cells, 37° C., day 6, read-out: ED50 (50% effective density); for SI (selectivity index, CC50/ED50): cytomegalovirus. The series is classed as cell-based, human cytomegalovirus (AD 169 strain). How it is done: Determination of Anti-viral Activity against Cytomegalovirus
(§4) The anti-viral activity against cytomegalovirus was also determined by the microplaque reduction method in the same manner as in Example 1. That is, MRC-5 cells were cultured in a 96-well microtiter plate until the cells reached the confluent state. Each of the compounds being tested was added to the wells to which a preparation of human cytomegalovirus (AD 169 strain) was subsequently added. The plate was cultured at 37° C. in a CO2 incubator. On day 6 after the culture, physiological saline containing 10% formalin was added to the wells and the plate was allowed to stand overnight to fix the cells to the wells. After washing the plate, the cells were stained with a crystal violet solution and then washed. The focus formation by cytomegalovirus was observed microscopically and the number of the foci was counted.
as §2, §3

Series [2] is described as follows: Cytotoxicity in virus-free MRC-5 cells (Example 2). The series is classed as cell-based. The settings on record: human. On the procedure: as §4
The virus-free group in which, in place of the preparation of cytomegalovirus, the culture medium was added to the MRC-5 cells was also cultured in the same manner.

A short description of series [3]: Acute toxicity test, variation of body weight of mice. The class given is in vivo, Mouse: ICR. The settings on record: 1 or 2 g/kg ip., male ICR mice. How it is done:
With respect to 2-thio-5-iodocytosine arabinoside (5-I-AraSC) which was evidenced to have the anti-viral effect in vitro, the acute toxicity was also determined in the following manner.
Mouse: ICR, male, 4 weeks;
Drug: 5-I-AraSC, 1 or 2 g/kg, ip., n=6.
The drug 5-I-AraSC was administered in a dosage of 1 or 2 g/kg to each mouse intraperitoneally, and the variation of a body weight of each mouse was examined.

The mark [4] stands for this setting: MRC-5 cells, virus-free, cultured as in varicella-zoster test (day 3), read-out: CC50 (50% cytotoxic concentration).

Each structure is given as a SMILES string. ≈ marks a conversion by molar mass, not a printed value. Where two headings read alike, the source gives them in different places.

On to `Nc1nc(=S)n([C@@H]2O[C@H](CO)[C@@H](O)[C@@H]2O)cc1Br` [2-thio-5-bromocytosine arabinoside], for which the values for the EC50 in the series with varicella-zoster virus and in the series with cytomegalovirus were 7.5 µg/mL (≈ 22.2 µM) and 2.4 µg/mL (≈ 7.1 µM), respectively. Also, the results for the “SI (selectivity index, CC50/ED50)” value with varicella-zoster virus and with cytomegalovirus were above 13 and above 42, respectively. The CC50 at 72 h in series [1] (mrc-5 cells) was above 100 µg/mL. Also, the CC50 at 144 h in series [2] (mrc-5 cells) is above 100 µg/mL.
`Nc1nc(=S)n([C@@H]2O[C@H](CO)[C@@H](O)[C@@H]2O)cc1F` [2-thio-5-fluorocytosine arabinoside]: the EC50 is 1.65 µg/mL (≈ 5.95 µM) in the series on varicella-zoster virus and 0.16 µg/mL (≈ 0.577 µM) with cytomegalovirus. Moreover, the “SI (selectivity index, CC50/ED50)” value with varicella-zoster virus is reported as above 60; with cytomegalovirus, above 625. Moreover, in series [1] (setting [4]), the CC50 at 72 h was above 100 µg/mL. Further, the CC50 at 144 h in series [2] (MRC-5 cells, virus-free, cultured as in cytomegalovirus test (day 6), read-out: CC50 (50% cytotoxic concentration)) is above 100 µg/mL.
Regarding `Nc1nc(=S)n([C@@H]2O[C@H](CO)[C@@H](O)[C@@H]2O)cc1I` [2-thio-5-iodocytosine arabinoside], in the series on varicella-zoster virus, the EC50 is 0.7 µg/mL (≈ 1.82 µM) and the “SI (selectivity index, CC50/ED50)” value was above 143. This molecule registered a CC50 at 72 h in series [1] (mrc-5 cells) above 100 µg/mL. For the same molecule, in the series on cytomegalovirus, the EC50 came out at 0.26 µg/mL (≈ 0.675 µM) and the “SI (selectivity index, CC50/ED50)” value is given as above 385. This molecule also displayed a CC50 at 144 h in series [2] (mrc-5 cells) above 100 µg/mL. Moreover, the “death of the mice” value in series [3] (during the test) is “No death of the mice was observed during the test”. Also, the acute toxicity entry in series [3] (overall conclusion) is reported as “not so strong”.
As for `O=c1[nH]c(=S)n([C@@H]2O[C@H](CO)[C@@H](O)[C@@H]2O)cc1I` [2-thio-5-iodouracil arabinoside], in the series on varicella-zoster virus, the EC50 was 3.1 µg/mL (≈ 8.03 µM) and the “SI (selectivity index, CC50/ED50)” value is on record as 6.5. In series [1] (setting [4]), the CC50 at 72 h was 20 µg/mL (≈ 51.8 µM).
